In patent US20040076673A1, “Oral pharmaceutical composition containing a block copolymer” (priority 2000, published 2004):
Converted amounts (≈) assume the structure as drawn.

Legend:
[1] = pH shift dissolution method (0.1N HCl, then shift to pH 6.5); format: physicochemical; conditions: in vitro tests; with block copolymers versus without
Description: pH Shift Dissolution Method
The formulations were weighed into hard gelatin capsules (equivalent to 25 mg drug) and dissoluted in 500 ml 0.1N HCl for one hour at 37° C. (paddle speed 100 rpm). A 5 ml sample was taken at 55 minutes and the media replaced. After one hour 10 ml of a 2.5M KH2PO4/16.72% (w/v) NaOH solution was added to the HCl to shift the pH to 6.5. 5 ml samples were then removed with a plastic syringe at 5, 15, 30, 45 and 60 minutes and media replaced after every sampling time point. Each sample was centrifuged (14,000 rpm) at ambient temperature for 15 minutes and then analysed by HPLC using the following conditions: […]

Solubility Measurements = format: physicochemical

- improvement of maximum supersaturated concentration by use of the polymers [1]: 4-10 times
- solubility (Solubility Measurements; pH 1.2, simulated gastric fluid): 250 µg/mL (≈ 508 µM)
- solubility (Solubility Measurements; pH 6.8, aqueous buffer): 2 µg/mL (≈ 4.07 µM)
- solubility (Solubility Measurements; water): < 5 µg/mL
SMILES: O=C(c1ccc(-c2ccncc2)cc1)N1CCN(S(=O)(=O)c2ccc3cc(Cl)ccc3c2)CC1 [Compound 1, 1-(6-chloronaphth-2-ylsulfonyl)-4-[4-(4-pyridyl)benzoyl] piperazine]
